Source: patent US20250230226A1, “PLXDC1/PLXDC2 ACTIVATORS AND THEIR USE IN THE TREATMENT OF BLOOD VESSEL DISORDERS” (THE REGENTS OF THE UNIVERSITY OF CALIFORNIA, priority 2019, published 2025)

Tested on: LL/2 lung cancer tumor endothelial cells
Assay: Lung LL2 ex vivo model of tumor angiogenesis
Assay type: cell-based, mouse
Settings: for 48 hrs (morphology observations): LL/2 tumor endothelial cells; for Cell death: drug treatment for two days, ratio of red area to total endothelial cell area
In short: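 LL2 mouse tumor fragments (~0.075 mm³) embedded in Matrigel and cultured in endothelial growth medium at 37 °C until endothelial outgrowth (~4 days) before treatment. Cell death assessed e.g. 48 h after drug by fluorescein diacetate (live)/propidium iodide (dead) staining and red/green fluorescence imaging.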

[1] = Mus musculus, Endothelial cell, 48 h, read-out: Cell death

CCCCOc1ccc(S(=O)(=O)c2cnc3ccc(SC)cc3c2N2CCC(N3CCCC3CO)CC2)cc1 (stereo not drawn) [Compound 350]
48 hrs (morphology observations) (40 μm): 0
cytotoxicity at 40 µM [1]: 20%

CCCCCCCCCCCCCCOc1ccc(S(=O)(=O)c2cnc3ccc([S+](C)[O-])cc3c2N2CCC(N3CCC(N4CCCCC4)CC3)CC2)cc1F (stereo not drawn) [Compound 366]
48 hrs (morphology observations) (20 μm): 0
Cell death (20 μm): 10%

CCCCOc1ccc(S(=O)(=O)c2cnc3ccc(C(=O)OCC)cc3c2N2CCC(N3CCSCC3)CC2)cc1 [Compound 217]
48 hrs (morphology observations) (40 μm): 0
Cell death (40 μm): 30%

CCc1ccc(S(=O)(=O)c2cnc3ccc(OC(F)(F)F)cc3c2NCCCCO)cc1 [Compound 111]
48 hrs (morphology observations) (20 μm): 0
Cell death (20 μm): 30%

COc1ccc(S(=O)(=O)c2cnc3ccc(C(=O)N(C)C)cc3c2N2CCC(N3CCCC3=O)CC2)cc1 [Compound 332]
48 hrs (morphology observations) (40 μm): 0
Cell death (40 μm): 0%

CCOC(=O)c1ccc2ncc(S(=O)(=O)c3ccc(OC)cc3)c(-n3cnnn3)c2c1 [Compound 185]
48 hrs (morphology observations) (10 μm): * (50% or less of cells vesicularize in cell shape)
Cell death (10 μm): 30%

CCCCCCCOc1ccc(S(=O)(=O)c2cnc3ccc([S+](C)[O-])cc3c2N2CCN(C3CCN(Cc4ccccc4)C3)CC2)cc1 (stereo not drawn) [Compound 278]
48 hrs (morphology observations) (10 μm): * (50% or less of cells vesicularize in cell shape)
Cell death (10 μm): 50%

COc1ccc(S(=O)(=O)c2cnc3ccc([S+](C)[O-])cc3c2NN2CCN(C)CC2)cc1 (stereo not drawn) [Compound 227]
48 hrs (morphology observations) (40 μm): 0
Cell death (40 μm): 10%

CCCCOc1ccc(S(=O)(=O)c2cnc3ccc(SC)cc3c2N2CCC(=O)N(C)CC2)cc1 [Compound 357]
48 hrs (morphology observations) (40 μm): 0
cytotoxicity at 40 µM [1]: 0%

CCOC(=O)c1ccc2ncc(S(=O)(=O)c3ccc(OC)cc3)c(-n3ccnn3)c2c1 [Compound 184]
48 hrs (morphology observations) (10 μm): 0
Cell death (10 μm): 5%

CCOC(=O)c1ccc2ncc(S(=O)(=O)c3ccc(CC)cc3)c(-n3nnc4ccccc43)c2c1 [Compound 133]
Cell death (20 μm): 10%

CCc1ccc(S(=O)(=O)c2cnc3ccc(OC(F)(F)F)cc3c2-n2cccc2)cc1 [Compound 108]
48 hrs (morphology observations) (20 μm): 0
Cell death (20 μm): 0%

CCCCCCCCCCCCCCOc1ccc(S(=O)(=O)c2cnc3ccc([S+](C)[O-])cc3c2N2CCC(N3CCC(N4CCCC(O)C4)CC3)CC2)cc1F (stereo not drawn) [Compound 364]
48 hrs (morphology observations) (20 μm): *** (more than 50% but less than 100% of endothelial cells vesicularize in cell shape)
cytotoxicity at 20 µM [1]: 30%

CCCCOc1ccc(S(=O)(=O)c2cnc3ccc([S+](C)[O-])cc3c2N2CCC(N3CCC(N4CCCCC4)CC3)CC2)cc1 (stereo not drawn) [Compound 237]
48 hrs (morphology observations) (40 μm): *** (more than 50% but less than 100% of endothelial cells vesicularize in cell shape)
Cell death (40 μm): 100%

CCCCOc1ccc(S(=O)(=O)c2cnc3ccc(SC)cc3c2N2CCCN(S(=O)(=O)NCC(F)(F)F)CC2)cc1 [Compound 353]
48 hrs (morphology observations) (40 μm): 0
cytotoxicity at 40 µM [1]: 0%

CCCCCCCCCCOc1ccc(S(=O)(=O)c2cnc3ccc([S+](C)[O-])cc3c2N2CCC(N3CCC(N4CCN(C)CC4)CC3)CC2)cc1 (stereo not drawn) [Compound 285]
48 hrs (morphology observations) (10 μm): *** (more than 50% but less than 100% of endothelial cells vesicularize in cell shape)
Cell death (10 μm): 60%

CCCCOc1ccc(S(=O)(=O)c2cnc3ccc(SC)cc3c2N2CCC3C(COCCN3CC(C)C)C2)cc1 (stereo not drawn) [Compound 352]
48 hrs (morphology observations) (40 μm): *** (more than 50% but less than 100% of endothelial cells vesicularize in cell shape)
cytotoxicity at 40 µM [1]: 100%
